Some test systems named below: A549 NSCLC; DLD-1 colon; HL-60(TB) leukemia; HT29 colon; M14 melanoma; OVCAR-4 ovarian; SF-295 CNS; SR leukemia; MCF7 breast.
Holding throughout (assay): NCI-60 cell line screen, 48 h

“And” between values parts separate entries of the source, which are not always exact repeats. Identical values can stand only once.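 Values below derive from 48-hour exposures of cells grown in 96-well plates, with endpoints linearly interpolated between the two concentrations bracketing the appropriate inhibition level. Here, GI50 denotes the concentration required for 50% inhibition of growth. TGI: total growth inhibition.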 Where only a bound is given, the exact number is not on record here.

As for `CC1=CCP(C(F)(F)F)P(C(F)(F)F)C1` (stereo not given), the TGI in the assay on A549 NSCLC, with DLD-1 colon, with HL-60(TB) leukemia, with HT29 colon, with M14 melanoma and with OVCAR-4 ovarian was greater than 100 µM in each case. The TGI in the assay on SF-295 CNS and in the assay with SR leukemia was greater than 100 µM throughout.
With `O=C1NC(=O)[C@@H](c2cn3c4c(cccc24)CCC3)[C@@H]1c1c[nH]c2ccccc12`, the GI50 with A549 NSCLC was 617 nM and 516 nM; with HL-60(TB) leukemia it was 348 nM and 350 nM; with HT29 colon, 312 nM and 321 nM; in the assay on M14 melanoma, 310 nM and 372 nM; with MCF7 breast it was 246 nM and 331 nM; in the assay with OVCAR-4 ovarian, 1580 nM and 1120 nM. Moreover, the GI50 in the assay with SF-295 CNS is 330 nM and 260 nM; with SR leukemia it was 246 nM and 377 nM. The TGI in the assay with A549 NSCLC is > 10 µM and 16.4 µM; with HL-60(TB) leukemia it was > 4.06 µM and 6.88 µM; with HT29 colon it was > 4.4 µM and 1.57 µM; with M14 melanoma it was > 10 µM and 10.8 µM; in the assay with MCF7 breast it was > 10 µM and 12.8 µM; with OVCAR-4 ovarian, > 10 µM and 20.2 µM. Further, the TGI with SF-295 CNS was > 10 µM and 5.08 µM; in the assay on SR leukemia it was > 10 µM and 27.6 µM.
On to `Cc1ccc2c(/C=C/C(=O)c3cc(CN4CCOCC4)c(O)c4nc(C)ccc34)cc(CN3CCOCC3)c(O)c2n1`, for which the GI50 with A549 NSCLC is 380 nM; in the assay on HL-60(TB) leukemia, 272 nM; with HT29 colon it was 1640 nM; in the assay on M14 melanoma it was 564 nM; in the assay with MCF7 breast, 356 nM; in the assay with OVCAR-4 ovarian, 637 nM. In addition, the GI50 with SF-295 CNS is 765 nM; in the assay on SR leukemia it was 318 nM. Further, the TGI amounted to 15.1 µM in the assay with A549 NSCLC; 0.677 µM in the assay with HL-60(TB) leukemia; 3.39 µM in the assay on HT29 colon; 11.7 µM in the assay with M14 melanoma; 2.74 µM with MCF7 breast; 2.43 µM in the assay on OVCAR-4 ovarian. In addition, the TGI with SF-295 CNS is 10.3 µM; in the assay on SR leukemia, 11.9 µM.
As to `Cc1c(C(=O)CCl)c(=O)n(-c2ccccc2)n1C`, the GI50 is 11600 nM in the assay with A549 NSCLC; 3800 nM in the assay with HL-60(TB) leukemia; 3250 nM in the assay on HT29 colon; 3130 nM with M14 melanoma; 2730 nM in the assay with MCF7 breast; 3680 nM with OVCAR-4 ovarian. Further, the GI50 in the assay on SF-295 CNS is 10900 nM; in the assay on SR leukemia, 2280 nM. Moreover, the TGI in the assay on A549 NSCLC stood at 27.4 µM; in the assay with HL-60(TB) leukemia, 13.5 µM; in the assay on HT29 colon, 12.9 µM; in the assay on M14 melanoma, 15.4 µM; with MCF7 breast, 11.6 µM; in the assay on OVCAR-4 ovarian, 14.9 µM. The results for the TGI with SF-295 CNS and in the assay with SR leukemia were 44.3 µM and 13.5 µM, respectively.
For the compound `O=C(Nc1ncc([N+](=O)[O-])s1)c1cccc([N+](=O)[O-])c1`, the GI50 in the assay with A549 NSCLC was 4240 nM; with HL-60(TB) leukemia, 2350 nM; with HT29 colon it was 4430 nM; in the assay on M14 melanoma, 3850 nM; with MCF7 breast, 3020 nM; in the assay on OVCAR-4 ovarian, 3970 nM. Moreover, the results for the GI50 in the assay on SF-295 CNS and with SR leukemia were 2710 nM and 2360 nM, respectively. Further, the TGI in the assay on A549 NSCLC is 42.5 µM; with HL-60(TB) leukemia it was 8.27 µM; in the assay with HT29 colon it was 97.2 µM; in the assay with M14 melanoma, 24.1 µM; with MCF7 breast it was greater than 88.2 µM; in the assay on OVCAR-4 ovarian it was greater than 100 µM. For the same compound, the TGI with SF-295 CNS is 35.1 µM; in the assay on SR leukemia it was 9.01 µM.
Regarding `O=C1c2cccnc2-c2nc(-c3ccccn3)cc3c2c1nc1ccccc13`, the GI50 in the assay on A549 NSCLC was 1380 nM; with HL-60(TB) leukemia, 66 nM; with HT29 colon it was 850 nM; in the assay with M14 melanoma, 228 nM; in the assay with MCF7 breast, 463 nM; in the assay on OVCAR-4 ovarian it was 69.9 nM. The GI50 in the assay with SF-295 CNS is 423 nM. The TGI in the assay with A549 NSCLC amounted to 3.39 µM; in the assay on HT29 colon, 2.95 µM; in the assay on M14 melanoma it was 1.36 µM; in the assay on MCF7 breast, 2.22 µM; in the assay with OVCAR-4 ovarian, 0.26 µM; with SF-295 CNS, 1.7 µM. Besides, in the assay with SR leukemia, the TGI was 25.3 µM.
On to `O=C1NC(=O)C2=C1CCC2O` (stereo not given), for which the TGI with A549 NSCLC, in the assay on HL-60(TB) leukemia, in the assay with HT29 colon, in the assay with M14 melanoma, in the assay with MCF7 breast and in the assay on OVCAR-4 ovarian was greater than 100 µM in each case. Besides, the TGI in the assay on SF-295 CNS and in the assay with SR leukemia was greater than 100 µM in each case.
For `COc1ccc(/C=C/C(=O)/C=C(/C=C/c2ccc(OC)c(OC)c2)OB(F)F)cc1OC`, the GI50 with A549 NSCLC was 2240 nM; in the assay with HL-60(TB) leukemia, 495 nM; in the assay on HT29 colon, 1030 nM; in the assay on M14 melanoma it was 519 nM; in the assay on MCF7 breast it was 400 nM; in the assay with OVCAR-4 ovarian, 1860 nM. In addition, the GI50 in the assay with SF-295 CNS is 1890 nM; with SR leukemia, 287 nM. The TGI in the assay on A549 NSCLC is 7.62 µM; in the assay on HL-60(TB) leukemia it was 3.64 µM; in the assay on HT29 colon it was 4.95 µM; in the assay with M14 melanoma, 3.55 µM; in the assay on MCF7 breast it was greater than 100 µM; with OVCAR-4 ovarian it was greater than 100 µM. Also, the TGI was determined as 4.87 µM in the assay with SF-295 CNS and 1.69 µM in the assay with SR leukemia.
For `O=C1C(Cl)=C(Oc2ccccc2)C(=O)c2ccccc21`, the GI50 was 21000 nM with A549 NSCLC; 2540 nM with HL-60(TB) leukemia; 3090 nM with HT29 colon; 8550 nM in the assay on M14 melanoma; 7300 nM with MCF7 breast; 2580 nM with OVCAR-4 ovarian. The figures for the GI50 in the assay on SF-295 CNS and in the assay on SR leukemia were 3030 nM and 4490 nM, respectively. For the same compound, the TGI was 51.8 µM in the assay with A549 NSCLC; 17.7 µM in the assay with HL-60(TB) leukemia; 12.3 µM in the assay on HT29 colon; 22 µM with M14 melanoma; 25.2 µM in the assay with MCF7 breast; 7.22 µM in the assay with OVCAR-4 ovarian. Also, the TGI was found to be 11.3 µM with SF-295 CNS and 39.1 µM with SR leukemia.
Regarding `CC(C)(C)[Si](C)(C)OC1[C@@H](O[Si](C)(C)C(C)(C)C)[C@@H](CNC(=O)NC(=O)NC(=O)CI)O[C@H]1n1cnc2c(NC(=O)Nc3ccccc3)ncnc21` (stereo not given in full), the GI50 in the assay on A549 NSCLC is 1570 nM; with HL-60(TB) leukemia, 84.5 nM; in the assay with HT29 colon, 225 nM; with M14 melanoma, 6100 nM; with MCF7 breast, 6100 nM; with OVCAR-4 ovarian, 665 nM. In addition, the figures for the GI50 in the assay with SF-295 CNS and in the assay with SR leukemia were 849 nM and 44.7 nM, respectively. Moreover, the TGI in the assay on A549 NSCLC is 11.9 µM; in the assay on HL-60(TB) leukemia, 0.166 µM; in the assay on HT29 colon, 0.771 µM; in the assay with M14 melanoma it was 14.6 µM; in the assay with MCF7 breast, 17.4 µM; in the assay on OVCAR-4 ovarian, 2.36 µM. For the same compound, the TGI is 2.36 µM with SF-295 CNS and 0.159 µM with SR leukemia.
Take `Clc1ccc(N2COOC3(OOC2)C2CC4CC(C2)CC3C4)cc1`: the GI50 was 5180 nM in the assay on A549 NSCLC; 1550 nM in the assay on HL-60(TB) leukemia; 9930 nM with HT29 colon; 1480 nM with M14 melanoma; 3980 nM with MCF7 breast; 5520 nM in the assay on OVCAR-4 ovarian. The GI50 with SF-295 CNS is 2990 nM; in the assay on SR leukemia, 2190 nM. Also, the TGI in the assay on A549 NSCLC is greater than 100 µM; in the assay on HL-60(TB) leukemia, 8.27 µM; in the assay on HT29 colon, greater than 60.1 µM; in the assay with M14 melanoma it was greater than 100 µM; in the assay on MCF7 breast, greater than 46.1 µM; in the assay with OVCAR-4 ovarian, greater than 59.5 µM. Moreover, the TGI with SF-295 CNS was determined as 17.9 µM; in the assay on SR leukemia, 11.4 µM.
Regarding `O=C1C(c2ccc(Cl)cc2)=[N+]([O-])c2ccccc21`, the TGI amounted to 37.7 µM in the assay on A549 NSCLC; 30.1 µM in the assay with DLD-1 colon; 24 µM in the assay with HL-60(TB) leukemia; 43.6 µM in the assay with HT29 colon; 27.7 µM in the assay on M14 melanoma; 42.2 µM with SF-295 CNS. The compound further showed a TGI in the assay with SR leukemia greater than 100 µM.
Consider `Cc1cc(S(=O)(=O)Nc2nnc(-c3ccco3)c(-c3ccco3)n2)c(SCc2ccccc2)cc1Cl`, for which the GI50 in the assay on A549 NSCLC was 34700 nM; with HL-60(TB) leukemia, 24800 nM; in the assay with HT29 colon, 23100 nM; in the assay on M14 melanoma, 25800 nM; with MCF7 breast it was 26700 nM; in the assay on OVCAR-4 ovarian, 22000 nM. Also, the values for the GI50 in the assay with SF-295 CNS and in the assay on SR leukemia were 29200 nM and 19400 nM, respectively. Besides, the TGI in the assay on A549 NSCLC is greater than 100 µM; in the assay with HL-60(TB) leukemia, 83.1 µM; in the assay with HT29 colon, 47.1 µM; with M14 melanoma it was 55.5 µM; in the assay on MCF7 breast, 61.9 µM; with OVCAR-4 ovarian, 41.6 µM. Besides, the values for the TGI in the assay on SF-295 CNS and with SR leukemia were 83.9 µM and 40 µM, respectively.
Regarding `Clc1ccc(Nc2ccnc(NCCNc3ccnc4cc(Cl)ccc34)n2)cc1`, the GI50 with A549 NSCLC is 1530 nM; in the assay on HL-60(TB) leukemia it was 2090 nM; in the assay with HT29 colon, 615 nM; with M14 melanoma, 1400 nM; in the assay with MCF7 breast it was 1080 nM; in the assay with OVCAR-4 ovarian, 1030 nM. For the same compound, the GI50 in the assay with SF-295 CNS is 1160 nM; in the assay on SR leukemia it was 1390 nM. The TGI in the assay with A549 NSCLC was found to be 3.1 µM; in the assay on HL-60(TB) leukemia, 4.92 µM; in the assay on HT29 colon it was 2.07 µM; in the assay on M14 melanoma, 3.09 µM; in the assay on MCF7 breast it was 2.59 µM; with OVCAR-4 ovarian, 2.31 µM. For the same compound, the TGI with SF-295 CNS was 2.42 µM; with SR leukemia, 3.43 µM.
Regarding `Nc1nc(SCC(=O)O)[nH]c(=O)c1N`, the TGI in the assay on A549 NSCLC, in the assay on HL-60(TB) leukemia, in the assay with HT29 colon, with M14 melanoma, in the assay on MCF7 breast and in the assay with OVCAR-4 ovarian was greater than 100 µM each time. In addition, the TGI was greater than 100 µM in the assay with SF-295 CNS and 77.7 µM in the assay with SR leukemia.

The values are drawn from PubChem BioAssay (NCI).
